According to patent publication US6486196B2, “Anticancer compounds: process for their preparation and pharmaceutical compositions containing them” (Dr. Reddy's Research Foundation, priority 2000, dated 2002):

Assays:
HIV-1/MN = assay: Anti HIV activity in PM-1 cells (P24 ELISA, MTT corrected); assay type: cell-based; settings: 1 μM; PM-1 cells infected with HIV-1/MN, 96 h, P24 antigen corrected by MTT
Protocol: Human CD^4+ T cell line PM-1 used in the assay was cultured in RPMI-1640 medium containing 10% Fetal bovine serum, 2 g/L sodium bicarbonate, 100,000 units/L Pencillin-G and 100 mg/L streptomycin. Healthy PM-1 cells were plated on the first day in a 96 well plate at 2×10^6 cells per well. After 24 h HIV-1/MN was added to the culture and incubated for 2 h for infection. Cells were washed twice with PBS to remove the virus in the culture. Different concentrations of DRF compounds ranging from 10−^4 to 10^−8 M were added to the culture and incubated for 96 h. The viability of cells was then assessed by standard MTT assay and the viral antigen P24 levels were estimated by ELISA method. Based on the MTT assay values the P 24 antigen values were corrected.
All the samples were tested in triplicates and the average was used for calculations. AZT was used as standard compound for comparision.

SW-620 = assay: Sulforhodamine B growth inhibition, colon SW-620; assay type: cell-based, human; settings: 48 h, SRB, read-out: GROWTH INHIBITION (GI 50)
Protocol: (§1) Each test compound was screened against a battery of cell lines representing eight different types of cancers. In a typical procedure, 1×10^4 cells were seeded into each well of 96 well plate in 100 μL volume of RPMI 1640 medium containing antibiotics and 10% FCS.
(§2) The plates were incubated at 37° C. in presence of CO2. After 24 h, test compounds were evaluated at five 10 fold dilutions ranging from 100 to 0.01 μM. To each test well 100 μL of test compound solution was added and medium with vehicle was added to control wells and the plates were further incubated. After 48 h of incubation, plates were terminated by Sulforhodamine B method.
(§3) The optical density which is proportional to protein mass, is then read by automated spectrophotometric plate reader at a wavelength of 515 nm.

MCF7 = assay: Sulforhodamine B growth inhibition, breast MCF7; assay type: cell-based, human; settings: 48 h, SRB, read-out: GROWTH INHIBITION (GI 50)
Protocol: as §1, §2, §3

Swiss albino mice = assay: Plasma triglyceride and body weight reduction in Swiss albino mice; assay type: in vivo
Protocol: Male Swiss albino mice (SAM) were obtained from NIN and housed in DRF animal house. All these animals were maintained under 12 hour light and dark cycle at 25±1° C. Animals were given standard laboratory chow (NIN, Hyderabad, India) and water, ad libitum. SAM of 20-25 g body weight range (Oliver, P., Plancke, M. O., Marzin, D., Clavey, V., Sauzieres, J and Fruchart, J. C. Effects of fenofibrate, gemfibrozil and nicotinic acid on plasma lipoprotein levels in normal and hyperlipidemic mice. Atherosclerosis. 1988. 70: 107-114)
The test compounds were administered orally to Swiss albino mice at 30 to 500 mg/kg/day dose for 6 days. Control mice were treated with vehicle (Chremophore/DMSO/H2O; dose 10 ml/kg).
The blood samples were collected in fed state 1 hour after drug administration on 0 and 6 day of treatment. The blood was collected from the retro-orbital sinus through heparinised capillary in EDTA containing tubes. After centrifugation, plasma sample was separated for triglyceride (Wieland, 0. Methods of Enzymatic analysis, Bergerneyer, H. O., Ed., 1963. 211-214; Trinder, P. Ann. Clin. Biochem. 1969. 6: 24-27). Measurement of plasma triglycerides was done using commercial kits (Dr. Reddy's Diagnostic Division, Hyderabad, India).
The formula used to measure percent reduction in blood sugar/triglycerides is given above.

PC-3 = assay: Sulforhodamine B growth inhibition, prostate PC-3; assay type: cell-based, human; settings: 48 h, SRB, read-out: GROWTH INHIBITION (GI 50)
Protocol: as §1, §2, §3

SKOV-3 = assay: Sulforhodamine B growth inhibition, ovarian SKOV-3; assay type: cell-based, human; settings: 48 h, SRB, read-out: GROWTH INHIBITION (GI 50)
Protocol: as §1, §2, §3

DU145 = assay: Sulforhodamine B growth inhibition, prostate DU145; assay type: cell-based, human; settings: 48 h, SRB, read-out: GROWTH INHIBITION (GI 50)
Protocol: as §1, §2, §3

U251 = assay: Sulforhodamine B growth inhibition, CNS U251; assay type: cell-based, human; settings: 48 h, SRB, read-out: GROWTH INHIBITION (GI 50)
Protocol: as §1, §2, §3

A498 = assay: Sulforhodamine B growth inhibition, renal A498; assay type: cell-based, human; settings: 48 h, SRB, read-out: GROWTH INHIBITION (GI 50)
Protocol: as §1, §2, §3

PA1 = assay: Sulforhodamine B growth inhibition, ovarian PA1; assay type: cell-based, human; settings: 48 h, SRB, read-out: GROWTH INHIBITION (GI 50)
Protocol: as §1, §2, §3

UACC62 = assay: Sulforhodamine B growth inhibition, melanoma UACC62; assay type: cell-based, human; settings: 48 h, SRB, read-out: GROWTH INHIBITION (GI 50)
Protocol: as §1, §2, §3

C57BL/KsJ-db/db mice = assay: Blood sugar and triglycerides lowering in db/db mice; assay type: in vivo; settings: 100 mg/kg oral gavage daily for 6 days, plasma
Text: Mutution in colonies of laboratory animals and different sensitivities to dietary regimens have made the development of animal models with non-insulin dependent diabetes and hyperlipidemia associated with obesity and insulin resistance possible. Genetic models such as db/db mice have been developed by the various laboratories for understanding the pathophysiology of disease and testing the efficacy of new antidiabetic compounds (Diabetes, (1983) 32: 830-838; Annu. Rep. Sankyo Res. Lab. (1994) 46:1-57). The homozygous animals, C57 BL/KsJ-db/db mice developed by Jackson Laboratory, US, are obese, hyperglycemic, hyperinsulinemic and insulin resistant (J. Clin, Invest., (1990) 85: 962-967), whereas heterozygous are lean and normoglycemic. […]
The random blood sugar and triglyceride levels were measured by collecting blood (100 μl) through orbital sinus, using heparinised capillary in tubes containing EDTA which was centrifuged to obtain plasma. The plasma glucose and triglyceride levels were measured spectrometrically, by glucose oxidase and glycerol-3-PO4 oxidase/peroxidase enzyme (Dr. Reddy's Lab. Diagnostic Division Kits, Hyderabad, India) methods respectively.
The blood sugar and triglycerides lowering activities of the test compound was calculated according to the formula: [formula]
Body weight of the animals were measured at the beginning and at the end of the study period.

HT29 = assay: Sulforhodamine B growth inhibition, colon HT29; assay type: cell-based, human; settings: 48 h, SRB, read-out: GROWTH INHIBITION (GI 50)
Protocol: as §1, §2, §3

H522 = assay: Sulforhodamine B growth inhibition, lung H522; assay type: cell-based, human; settings: 48 h, SRB, read-out: GROWTH INHIBITION (GI 50)
Protocol: as §1, §2, §3

Human lymphocytes = assay: Lymphocyte proliferation (tritiated thymidine incorporation); assay type: cell-based; settings: 1 μM; human lymphocytes with Phytohemagglutitin A
Protocol: Human lymphocytes were isolated from whole blood by using Ficoll Hypaque Plus (Amersham). On day one, 1 million lymphocytes were seeded into each well of 96 well plate in 100 μL volume of RPMI 1640 medium containing 10% FCS and Phytohemagglutitin A at 1 μg/well concentration. Plates were incubated at 37° C. in CO2 incubator for 24 h. Test compounds at various concentrations were added to test wells and only medium with vehicle was added to control wells. After 48 h of incubation […] of tritiated thymidine was added to each well. After 24 h of thymidine addition the cells were harvested and the incorporated radioactivity was determined.
Stimulation Index (SI) was calculated using the formula, […]

MCF-7/ADR = assay: Sulforhodamine B growth inhibition, breast MCF-7/ADR; assay type: cell-based, human; settings: 48 h, SRB, read-out: GROWTH INHIBITION (GI 50)
Protocol: as §1, §2, §3

Question: With `C=C1CC[C@@H]2[C@](C)(COC(C)=O)[C@H](OC(C)=O)CC[C@@]2(C)[C@@H]1C/C=C1/C(=O)OC[C@H]1OC(=O)C(OC(C)=O)C(NC(C)=O)c1ccccc1` (stereo partly drawn) [Example 16, 3,19-Diacetyl-14-(2′-acetyl 3′-acetamido 3′-phenyl)propionyl andrographolide] as the compound, how does the “Percentage Inhibition” value (HIV-1/MN) read?
Answer: The value was 61.06%.

Question: What about the GI50 (SW-620) of the same compound?
Answer: Its GI50 is 6 µM.

Question: What about the GI50 (MCF7) of the same compound?
Answer: Its GI50 is 5 µM.

Question: What about the “Percentage reduction Body weight” value (Swiss albino mice; 100 mg/kg orally for 6 days) of the same compound?
Answer: The value was 9%.

Question: And the “Percentage reduction TG” value (Swiss albino mice; 100 mg/kg orally for 6 days)?
Answer: Its value is 42%.

Question: What about the “Percentage reduction Body weight” value (Swiss albino mice; 250 mg/kg orally for 6 days) of the same compound?
Answer: Its value is 15%.

Question: And the “Percentage reduction Body weight” value (Swiss albino mice; 500 mg/kg orally for 6 days)?
Answer: Its value is 23%.

Question: And the “Percentage reduction TG” value (Swiss albino mice; 500 mg/kg orally for 6 days)?
Answer: The value was 62%.

Question: And the GI50 (PC-3)?
Answer: The GI50 was 6.5 µM.

Question: And the GI50 (SKOV-3)?
Answer: The GI50 was 4 µM.

Question: What about the GI50 (DU145) of the same compound?
Answer: Its GI50 is 6.5 µM.

Question: And the GI50 (U251)?
Answer: Its GI50 is 4 µM.

Question: And the GI50 (A498)?
Answer: The GI50 was 9 µM.

Question: And the GI50 (PA1)?
Answer: The GI50 was 2 µM.

Question: And the GI50 (UACC62)?
Answer: The GI50 was 3 µM.

Question: What about the “Percentage reduction Glucose” value (C57BL/KsJ-db/db mice) of the same compound?
Answer: The value was 64%.

Question: And the “Percentage reduction TG” value (C57BL/KsJ-db/db mice)?
Answer: Its value is 54%.

Question: And the GI50 (HT29)?
Answer: The GI50 was 6.5 µM.

Question: What about the GI50 (H522) of the same compound?
Answer: The GI50 was 6 µM.

Question: What about the “Stimulation Index (SI)” value (Human lymphocytes) of the same compound?
Answer: Its value is 90.

Question: And the GI50 (MCF-7/ADR)?
Answer: Its GI50 is 5.5 µM.
